`CON=C1CCN2c3c(cccc31)C(=O)NC2c1ccc(OC)c(O)c1` (stereo not drawn) [Example 55, 3-(3-hydroxy-4-methoxyphenyl)-7-methoxyimino-6,7-dihydro-3H,5H-pyrido[3,2,1-ij]quinazoline-1(2H)-one] gave a melting point of 185.3 to 189.8 °C.

Compound `COc1ccc(C2NC(=O)c3ccc(Cl)c4c3N2CCC4=O)cc1` (stereo not drawn) [Example 25, 8-chloro-3-(4-methoxyphenyl)-6,7-dihydro-3H,5H-pyrido[3,2,1-ij]quinazoline-1,7(2H)-dione] has a melting point of 209.4 to 213.1 °C.

With `O=C1CCN2c3c1cccc3C(=O)NC2c1ccc(C(F)(F)F)cc1` (stereo not drawn) [Example 35, 3-(4-trifluoromethylphenyl)-6,7-dihydro-3H,5H-pyrido[3,2,1-ij]quinazoline-1,7(2H)-dione] the melting point was 203.1 to 208 °C.

Work on `COc1ccc(C2NC(=O)c3cccc4c3N2CCC4=NO)cc1` (stereo not drawn) [Example 3, 7-hydroxyimino-3-(4-methoxyphenyl)-6,7-dihydro-3H,5H-pyrido[3,2,1-ij]quinazoline-1(2H)] yielded a melting point of 200.8 to 211.9 °C.

For `CON=C1CCN2c3c(cccc31)C(=O)NC2c1ccc([N+](=O)[O-])cc1` (stereo not drawn) [Example 71, 7-methoxyimino-3-(4-nitrophenyl)-6,7-dihydro-3H,5H-pyrido[3,2,1-ij]quinazoline-1(2H)-one], the melting point was 112.9 to 116.4 °C.

`O=C1CCN2c3c1cccc3C(=O)NC2c1ccc(Br)cc1` (stereo not drawn) [Example 21, 3-(4-bromophenyl)-6,7-dihydro-3H,5H-pyrido[3,2,1-ij]quinazoline-1,7(2H)-dione] showed a melting point of 206.2 to 214 °C.

Work on `COc1ccc(C2NC(=O)c3cccc4c3N2CCC4=O)cc1` (stereo not drawn) [Example 1, 3-(4-methoxyphenyl)-6,7-dihydro-3H,5H-pyrido[3,2,1-ij]quinazoline-1,7(2H)-dione] yielded a melting point of 137.4 to 144.2 °C.

With `COc1ccc(C2NC(=O)c3cccc4c3N2CCC4=O)c(C)c1` (stereo not drawn) [Example 49, 3-(2-methyl-4-methoxyphenyl)-6,7-dihydro-3H,5H-pyrido[3,2,1-ij]quinazoline-1,7(2H)-dione] the melting point was 100.2 to 101.1 °C.

Compound `O=C1CCN2c3c1cccc3C(=O)NC2c1ccc(SC(F)(F)F)cc1` (stereo not drawn) [Example 45, 3-(4-trifluoromethylthiophenyl)-6,7-dihydro-3H,5H-pyrido[3,2,1-ij]quinazoline-1,7(2H)-dione] has a melting point of 178.2 to 180.9 °C.

For `COc1ccc(C2NC(=O)c3cccc4c3N2CCC4NC(=O)CCN2CCCCC2)cc1` (stereo not drawn) [Example 133, 7-[3-(piperidine-1-yl)propanoyl]amino-3-(4-methoxyphenyl)-6,7-dihydro-3H,5H-pyrido[3,2,1-ij]quinazoline-1(2H)-one], the melting point was 186 to 187.2 °C.

`O=C1CCN2c3c1cccc3C(=O)NC2c1ccccc1` (stereo not drawn) [Example 15, 3-(phenyl)-6,7-dihydro-3H,5H-pyrido[3,2,1-ij]quinazoline-1,7(2H)-dione] showed a melting point of 172.1 to 180.4 °C.

In the case of `CON=C1CCN2c3c(cccc31)C(=O)NC2c1ccc(OCCCN(C)C)cc1` (stereo not drawn) [Example 53, 7-methoxyimino-3-[4-(3-N,N-dimethylaminopropoxy)phenyl]-6,7-dihydro-3H,5H-pyrido[3,2,1-ij]quinazoline-1(2H)-one], the melting point is reported as 164.3 to 167 °C.

Work on `COc1ccc(C2NC(=O)c3cccc4c3N2CCC4O)cc1` (stereo not drawn) [Example 2, 7-hydroxy-3-(4-methoxyphenyl)-6,7-dihydro-3H,5H-pyrido[3,2,1-ij]quinazoline-1(2H)-one] yielded a melting point of 95.7 to 99.6 °C.

Work on `COc1ccc(C2NC(=O)c3cccc4c3N2CCC4=O)cc1Cl` (stereo not drawn) [Example 42, 3-(3-chloro-4-methoxyphenyl)-6,7-dihydro-3H,5H-pyrido[3,2,1-ij]quinazoline-1,7(2H)-dione] yielded a melting point of 174.5 to 176.9 °C.

For `COc1cccc(C2NC(=O)c3cccc4c3N2CCC4=O)c1` (stereo not drawn) [Example 44, 3-(3-methoxyphenyl)-6,7-dihydro-3H,5H-pyrido[3,2,1-ij]quinazoline-1,7(2H)-dione], the melting point was 126.5 to 142.5 °C.
